According to patent publication US8697652B2, “Cosmetic use of at least the natural tetrapeptide Ac-Ser-Asp-Lys-Pro or one of its analogs as a skin restructuring agent” (Centre National de la Recherche Scientifique (CNRS), priority 2004, dated 2014):
Ends that are not written are not given here.

How the values were obtained:
Assay type in all cases: cell-based
human skin explants = assay: General morphology (Masson Trichrome) of human skin explants treated topically with AcSDKP
Protocol: (§1) This study was conducted on thirty six human skin explants obtained from breast plastic surgery.
(§2) All the explants were maintained in a state of survival in a culture medium for eight days. AcSDKP at a concentration of 10^−5 M or 10^−8 M in physiological serum was applied to the explants by topical route every day for one week. On days 2, 4, 6 and 8, three explants from each batch (control, +AcSDKP 10^−5 M+ AcSDKP 10^−8 M) were removed and prepared for histological studies. General morphology was examined and an evaluation of the expression of basal keratin (CK14), undifferentiated keratin (CK19), collagen III, collagen IV, fibronectin and glycosaminoglycan without an acid group was performed.
This is seen by an increased number of live cell bases.

Keratin 14 (CK14) = assay: Immunolabelling of keratin 14 in human skin explants
Protocol: as §1, §2

Keratin 19 (CK19) = assay: Immunolabelling of keratin 19 in human skin explants
Protocol: as §1, §2

[1] = tested on: Dermal Collagen (Type III); assay: Immunolabelling of collagen III in human skin explants
Protocol: as §1, §2

[2] = tested on: Basal Membrane Collagen (Type IV); assay: Immunolabelling of collagen IV in human skin explants
Protocol: as §1, §2

fibronectin = assay: Immunolabelling of fibronectin in human skin explants
Protocol: as §1, §2

Glycosaminoglycan (GAGs) = assay: P.A.S. Alcian blue staining of GAGs without acid groups in human skin explants
Protocol: as §1, §2
This effect, clearly visible at D6 and D8, is characterised by a PAS positive increase in the number of fibroblasts in the papillary dermis, especially in the band situated along the dermo-epidermal junction and by increased levels of GAGs in these fibroblasts.

[3] = AcSDKP 10^-5 M compared with 10^-8 M

Acetyl-Ser-Asp-Lys-Pro (Ac-SDKP) [AcSDKP, natural tetrapeptide isolated from calf foetus bone marrow or obtained by peptide synthesis]
increase in epidermal thickness (human skin explants; [3]): greater | epidermal structure (general morphology) (human skin explants; AcSDKP 10^-5 M or 10^-8 M, topical daily, as of D6 of treatment): stimulation of the epidermal structure | overall effect on epidermis and dermis (conclusion) (human skin explants; conclusion of explant study): restructuring of the epidermis and dermis | CK14 restructuring effect (Keratin 14 (CK14); [3]): greater | CK14 levels (immunolabelling) (Keratin 14 (CK14); basal and superbasal position, as of D4 of treatment): gradual increase in the levels of this protein | production of CK14 in treated skin (summary) (Keratin 14 (CK14); summary statement): stimulates the production | CK19 effect (Keratin 19 (CK19); [3]): less marked effect | CK19 expression (immunolabelling) (Keratin 19 (CK19); AcSDKP 10^-5 M or 10^-8 M, as of D6 of treatment): overexpression of the skin's dermal attachments | production of CK19 in treated skin (summary) (Keratin 19 (CK19); summary statement): stimulates the production | collagen III expression ([1]; AcSDKP 10^-5 M, D8): very clear overexpression of collagen III in the papillary and reticular dermis | collagen III levels ([1]; AcSDKP 10^-5 M, six days of treatment): very marked increase in collagen III levels in the papillary dermis along the dermo-epidermal junction | collagen III in the remainder of the papillary dermis and reticular dermis ([1]; AcSDKP 10^-8 M, D6): more present | collagen III expression along the dermo-epidermal junction ([1]; AcSDKP 10^-8 M, D6, compared with 10^-5 M): less pronounced | level of collagen III ([1]; AcSDKP 10^-8 M, D8): increases along the dermo-epidermal junction and forms a thicker collagen band | expression of collagen III in treated skin (summary) ([1]; summary statement): stimulatory effect | increase in collagen IV levels [2, 3]: higher | increase in collagen IV levels in the basal membrane along the dermo-epidermal junction ([2]; AcSDKP 10^-5 M or 10^-8 M, D6 and D8, compared with type III collagen): less pronounced than that for type III collagen | expression of collagen IV in treated skin (summary) ([2]; summary statement): stimulatory effect | fibronectin activity (fibronectin; [3]): greater activity | fibronectin network (fibronectin; area treated with AcSDKP): denser and has thicker fibres | fibronectin expression (immunolabelling, summary) (fibronectin; treated skin): overexpression of this protein along a dermo-epidermal junction as well as in the papillary and reticular dermis | GAG activity (Glycosaminoglycan (GAGs); [3]): higher level of activity | levels of GAGs without acid groups (Glycosaminoglycan (GAGs); AcSDKP 10^-5 M or 10^-8 M, clearly visible at D6 and D8): significant increase in the levels of these compounds
